Patent publication US6500858B2, “Taxoid anti-tumor agents and pharmaceutical compositions thereof” (The Research Foundation of the state University of New York, priority 1994, dated 2002)
“And” between values parts separate entries of the source, which are not always exact repeats. Equal values may be shown once. Read-outs that look alike come from different tables or passages of the source.

How the values were obtained:
A2780 = experiment: growth inhibition by cell counts, 72 h; type: cell-based, human; settings: read-out: A2780 IC50
Method: (§1) Cells were plated in 6-well flat bottom plates (Falcon, Lincoln Park, N.J.) at a concentration of 10^5 cells ml in complete medium. After 24 h, the medium was replaced with media containing the test substances. Control cells were treated with vehicle alone. Cells were then washed twice and cultures maintained up to 72 h in complete medium (without removing the test substances). At this time point quadruplicate counts of triplicate cultures were performed. To calculate the growth inhibition effect, three independent experiments were performed for each test substance/cell line. The IC50 values were then calculated by fitting the concentration-effect curve data obtained in the three experiments with the sigmoid-Emax model using nonlinear regression, weighted by the reciprocal of the square of the predicted effect according to the method of Motulsky, H. J. and Ransnas, L. A., FASEB J. 1:365-74 (1987).

DU-145 = experiment: growth inhibition by cell counts, 72 h; type: cell-based, human; settings: read-out: DU-145 IC50
Method: as §1

MCF-7 ADRr = experiment: growth inhibition by cell counts, 72 h; type: cell-based, human; settings: read-out: MCF-7 ADRr IC50
Method: as §1

MCF-7 wt = experiment: growth inhibition by cell counts, 72 h; type: cell-based, human; settings: read-out: MCF-7 wt IC50
Method: as §1

NCI-H23 = experiment: growth inhibition by cell counts, 72 h; type: cell-based, human; settings: read-out: NCI-H23 IC50
Method: as §1

PC-3 = experiment: growth inhibition by cell counts, 72 h; type: cell-based, human
Method: as §1

WiDr = experiment: growth inhibition by cell counts, 72 h; type: cell-based, human; settings: read-out: WiDr IC50
Method: as §1

B16 melanoma = experiment: intravenous administration to mice bearing B16 melanoma; type: in vivo, B6D2F1 female mice; design: key to Responses (activity rating): A = active; HA = highly active
Method: (§2) The efficacy of the test compounds on solid tumors in vivo was determined experimentally according to the following general experimental protocol:
(§3) The mice subjected to the experiment were subcutaneously grafted bilaterally with 30 to 60 mg of a tumor fragment on day zero. Mice bearing tumors were mixed before being subjected to the various treatments and controls. In the case of treatment of advanced tumors, tumors were allowed to develop to the desired size, and mice having insufficiently developed tumors were eliminated. The selected mice were distributed at random to undergo the treatments and controls. Mice not bearing tumors may also be subjected to the same treatments as the tumor-bearing mice in order to be able to dissociate the toxic effect from the specific effect on the tumor. Chemotherapy generally began from 3 to 22 days after grafting, depending on the type of tumor, and the mice were observed every day. The different mice groups were weighed 3 or 4 times a week until the maximum weight loss was attained (nadir), and the groups were then weighed at least once a week until the end of the trial.
(§4) The tumors were measured 2 or 3 times a week until the tumor reached approximately 2 grams, or until the animal died, if this occurred before the tumor reached 2 grams. The mice were autopsied when sacrificed.
(§5) The antitumor activity was determined in accordance with different parameters recorded such as dose (mg/kg), mode of administration, time of administration, cytotoxicity, toxicity and log10 cell kill.
SB-T-1213, SB-T-121303, SB-T-121304 and SB-T-1250 were evaluated in B6D2F1 female mice bearing B16 melanoma. The general experimental protocol was as described above. The compounds evaluated were administered intravenously (iv) on an intermittent schedule on days 3, 5, and 7 post tumor implantation. With the exception of SB-T-1250, solutions of the compounds for administration were prepared in 5% ethanol, 5% polysorbate 80, and 90% glucose 5% water.

[1] = tested on: docetaxel-resistant melanoma, B16/TXT; experiment: intravenous administration to B16/TXT melanoma-bearing mice; type: in vivo, B6D2F1 female mice; design: key to Responses (activity rating): A = active; HA = highly active
Method: as §2, §3, §4, §5
SB-T-1213, SB-T-121303, SB-T-121304 and SB-T-1250 were evaluated in B6D2F1 female mice bearing the docetaxel-resistant melanoma, B16/TXT. The general experimental protocol was as described above. The compounds evaluated were administered intravenously on an intermittent schedule on days 3, 5, and 7 post tumor implantation.

A121 (ovarian carcinoma) = experiment: tumor cell growth inhibition (SRB, 72 h drug exposure); type: cell-based, human; settings: Homo sapiens, A121; 72 h drug exposure
Method: (§6) Lower numbers indicate higher potency. […] The data represent the mean values of at least three separate experiments. Lower numbers indicate greater activity.
(§7) Assessment of cell growth inhibition was determined according to the methods of Skehan et al., J. Nat. Cancer Inst. […] Briefly, cells were plated between 400 and 1200 cells/well in 96 well plates and incubated at 37° C. for 15-18 h prior to drug addition to allow attachment of cells. […] After a 72 h incubation, […] of ice-cold 50% TCA was added to each well and incubated for 1 h at 4° C. Plates were then washed 5 times with tap water to remove TCA, low-molecular-weight metabolites and serum proteins. Sulforhodamine B (SRB) (0.4%, […]) was added to each well. Following a 5 min incubation at room temperature, plates were rinsed 5 times with 0.1% acetic acid and air dried. […] Optical density was measured at 570 nm.

HT-29 (colon carcinoma) = experiment: as above; type: cell-based, human; settings: Homo sapiens, HT-29; 72 h drug exposure
Method: as §6, §7

MCF7 (mammary carcinoma) = experiment: as above; type: cell-based, human; settings: Homo sapiens, MCF7, 72 h drug exposure
Method: as §6, §7

[2] = tested on: MCF7-R (mammary carcinoma cells 180-fold resistant to adriamycin); experiment: as above; type: cell-based, human; settings: Homo sapiens, MCF7R; 72 h drug exposure, Table 1
Method: as §6, §7

[3] = tested on: LCC6-WT: human breast carcinoma; experiment: cytotoxicity assay of second generation taxoids; type: cell-based; settings: Homo sapiens, 72 h, read-out: LCC6-WT IC50
Method: A cytotoxicity assay of these new second generation taxoids was performed on human breast cancer cell lines, LCC6-WT and LCC-MDR, and selected taxoids were also assayed for their potency against MCF7 and MCF7-R (Skehan, P., et al., J. Nat. Cancer Inst. 1990, 82, 1107-1112).

[4] = tested on: LCC6-MDR: MDR1 transduced line; experiment: cytotoxicity assay of second generation taxoids; type: cell-based, human; settings: Homo sapiens, LCC6MDR, 72 h, read-out: LCC6-MDR IC50

## 3′-dephenyl-3′-(2,2-dimethyl-1-cyclopropyl)-10-acetyldocetaxel [SB-T-1250]
A2780; 72 h
  IC50: 3.03 nM
DU-145; 72 h
  IC50: 0.6 nM
MCF-7 ADRr; 72 h
  IC50: 48 nM
MCF-7 wt; 72 h
  IC50: 2.3 nM
NCI-H23; 72 h
  IC50: 1.6 nM
PC-3; 72 h
  IC50: 0.7 nM
WiDr
  IC50: 0.5 nM
B16 melanoma; 4.5 mg/kg/adm.
  Responses (activity rating): A
B16 melanoma; 4.5 mg/kg/adm., days 3, 5, 7
  T/C: 23%
  log10 cell kill: 1.2
B16 melanoma; 4.5 mg/kg/adm., days 3, 5, 7, 4.5 mg/kg
  % body weight loss at nadir: 12.5% and 12.5 (3) %
B16 melanoma; 7.3 mg/kg/adm., days 3, 5, 7
  drug related deaths (DD): ⅕
B16 melanoma; 11.8 mg/kg/adm., days 3, 5, 7
  drug related deaths (DD): ⅗
B16 melanoma; 19 mg/kg/adm., days 3, 5, 7
  drug related deaths (DD): 100%
B16 melanoma; days 3, 5, 7
  highest nontoxic dose: 4.5 mg/kg/adm.
[1]; 2.8 mg/kg/adm., days 3, 5, 7
  T/C: 152%
[1]; 4.5 mg/kg/adm., days 3, 5, 7
  T/C: 108%
[1]; 7.3 mg/kg/adm.
  Responses (activity rating): A
[1]; 7.3 mg/kg/adm., days 3, 5, 7
  T/C: 41%
  log10 cell kill: 1.1
[1]; 7.3 mg/kg/adm., days 3, 5, 7, 7.3 mg/kg
  % body weight loss at nadir: 16.7% and 16.7 (4) %
[1]; days 3, 5, 7
  highest nontoxic dose: 7.3 mg/kg/adm.

## CC(=O)O[C@H]1C(=O)[C@@]2(C)[C@H]([C@H](OC(=O)c3ccccc3)[C@]3(O)C[C@H](OC(=O)[C@H](O)[C@@H](NC(=O)c4ccccc4)c4ccccc4)C(C)=C1C3(C)C)[C@]1(OC(C)=O)CO[C@@H]1C[C@@H]2O [Paclitaxel, paclitaxel, reference compound]
A121 (ovarian carcinoma)
  IC50: 6.1 nM
HT-29 (colon carcinoma)
  IC50: 3.2 nM
MCF7 (mammary carcinoma); Table 1, read-out: MCF7 (breast) IC50
  IC50: 1.7 nM
MCF7 (mammary carcinoma); Table 3, read-out: MCF7 IC50
  IC50: 1.7 nM
[2]
  IC50: 300 nM
[3]
  IC50: 3.1 nM
[4]
  IC50: 346 nM
A2780; Homo sapiens, A2780, 72 h
  IC50: 5.4 nM
DU-145; Homo sapiens, DU-145, 72 h
  IC50: 1.5 nM
MCF-7 ADRr; Homo sapiens, MCF7, 72 h
  IC50: 3300 nM
MCF-7 wt; Homo sapiens, MCF7, 72 h
  IC50: 5.8 nM
NCI-H23; Homo sapiens, NCI-H23, 72 h
  IC50: 4.1 nM
PC-3; Homo sapiens, PC-3, 72 h
  IC50: 3.4 nM
WiDr; Homo sapiens, WiDr
  IC50: 3.8 nM
